The results in this text go back to patent US20240317721A1, “PYRAZOLYL DERIVATIVES AS INHIBITORS OF THE KRAS MUTANT PROTEIN” (NOVARTIS AG, priority 2021, published 2024).

The assay deals with KRasG12C (M1-K169, biotinylated on the N-terminus) (Homo sapiens (Human), UniProt P01116, G12C). As to the kind of experiment: Covalent competition assay: scintillation proximity assay (SPA) quantifying covalent modification of KRASG12C. It counts as binding. Conditions: competition with radiolabeled covalent probe (Compound B/Compound A), 2 hours incubation, 10 nM KRasG12C. The method in brief:
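Scintillation proximity readout after streptavidin bead capture (30 min) of biotinylated KRasG12C(M1-K169):GDP, 10 nM final, which was covalently labelled over 2 h by 25 nM radio-probe plus 475 nM cold probe unless blocked by compound.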
(In general: SPA uses beads or plates that emit light when radiolabelled molecules are held near them.)
As for `C=CC(=O)N1C[C@]2(C[C@H](n3nc(N4CC[C@@H](CN5CCN(C6COC6)CC5)CC4(C)C)c(-c4c(Cl)c(Cl)cc5[nH]ncc45)c3C)C2)[C@H]1C` (single isomer, unassigned) [Example 201a], the IC50 – broadly, the concentration that gives 50% inhibition – came to 4300 nM. `C=CC(=O)N1CC2(CC(n3nc(N4CC[C@@H](CN5CCCC6CN(C)C(=O)C65)CC4(C)C)c(-c4c(Cl)c(Cl)cc5[nH]ncc45)c3C)C2)C1` (single isomer, unassigned) [Example 261b, (4aR*,7aR*)-1-(((R)-1-(1-(2-acryloyl-2-azaspiro[3.3]heptan-6-yl)-4-(5,6-dichloro-1H-indazol-4-yl)-5-methyl-1H-pyrazol-3-yl)-2,2-dimethylpiperidin-4-yl)methyl)-6-methyloctahydro-7H-pyrrolo[3,4-b]pyridin-7-one]: the IC50 stood at 15 nM. The same measure for `C=CC(=O)N1CC2(CC(n3nc(N4CC[C@@H](CN5CCC6COCC65)CC4(C)C)c(-c4c(C)c(Cl)cc5[nH]ncc45)c3C)C2)C1` (single isomer, unassigned) [Example 305b, 1-(6-(4-(6-chloro-5-methyl-1H-indazol-4-yl)-3-((R)-4-(((3aR*,6aR*)-hexahydro-1H-furo[3,4-b]pyrrol-1-yl)methyl)-2,2-dimethylpiperidin-1-yl)-5-methyl-1H-pyrazol-1-yl)-2-azaspiro[3.3]heptan-2-yl)prop-2-en-1-one]: 19 nM; for `C=CC(=O)N1CC2(CC(n3nc(N4CCC(C(=O)N5CCN(C)CC5)CC4(C)C)c(-c4c(Cl)c(Cl)cc5[nH]ncc45)c3C)C2)C1` (single isomer, unassigned) [Example 211a, 1-(6-(4-(5,6-dichloro-1H-indazol-4-yl)-3-(2,2-dimethyl-4-(4-methylpiperazine-1-carbonyl)piperidin-1-yl)-5-methyl-1H-pyrazol-1-yl)-2-azaspiro[3.3]heptan-2-yl)prop-2-en-1-one]: 1600 nM; for `C=CC(=O)N1CC2(CC(n3nc(N4CCCC4(C)C)c(-c4c(Cl)c(C)cc5[nH]ncc45)c3C)C2)C1` (single isomer, unassigned) [Example 88b, 1-(6-(4-(5-chloro-6-methyl-1H-indazol-4-yl)-3-(2,2-dimethylpyrrolidin-1-yl)-5-methyl-1H-pyrazol-1-yl)-2-azaspiro[3.3]heptan-2-yl)prop-2-en-1-one]: 467 nM. Regarding `C=CC(=O)N1CC2(CC(n3nc(N4CCN(C5CC6(COC6)C5)CC45CCC5)c(-c4c(Cl)c(C)cc5[nH]ncc45)c3C)C2)C1` (single isomer, unassigned) [Example 135b, 1-(6-(3-(8-(2-oxaspiro[3.3]heptan-6-yl)-5,8-diazaspiro[3.5]nonan-5-yl)-4-(5-chloro-6-methyl-1H-indazol-4-yl)-5-methyl-1H-pyrazol-1-yl)-2-azaspiro[3.3]heptan-2-yl)prop-2-en-1-one], the IC50 stood at 14 nM. As to `C=CC(=O)N1CC2(CC(n3nc(N4CC[C@@H](CN5CCOCC5)CC4(C)C)c(-c4c(Cl)c(Cl)cc5[nH]nc(N)c45)c3C)C2)C1` (single isomer, unassigned) [Example 241b], the IC50 came to 536 nM. Next, `C=CC(=O)N1CC2(CC(n3nc(N4CC[C@@H](CN5CCN(C)[C@H](CO)C5)CC4(C)C)c(-c4c(Cl)c(Cl)cc5[nH]ncc45)c3C)C2)C1` (single isomer, unassigned) [Example 270b]: 5 nM. The same measure for `C=CC(=O)N1CC2(CC(n3nc(N4CCC(N5CCOCC5)CC4(C)C)c(-c4c(Cl)c(C)cc5[nH]ncc45)c3C)C2)C1` (single isomer, unassigned) [Example 34b, 1-(6-(4-(5-chloro-6-methyl-1H-indazol-4-yl)-3-(2,2-dimethyl-4-morpholinopiperidin-1-yl)-5-methyl-1H-pyrazol-1-yl)-2-azaspiro[3.3]heptan-2-yl)prop-2-en-1-one]: 13 nM.

Consider `CC[C@@]1(C)CN(C[C@@H]2COCCO2)CCN1c1nn(C2CC3(C2)CN(C(=O)/C=C/Cl)C3)c(C)c1-c1c(Cl)c(C)cc2[nH]ncc12` (single isomer, unassigned) [Example 175b], for which the IC50 amounted to 9 nM. The same measure for `C=CC(=O)N1CC2(CC(n3nc(N4CC[C@@H](CN5C6CCC5CN(C(C)=O)C6)CC4(C)C)c(-c4c(Cl)c(Cl)cc5[nH]ncc45)c3C)C2)C1` (single isomer, unassigned) [Example 318b]: 7 nM; for `C=CC(=O)N1CC2(CC(n3nc(N4CCC(CN5CCN(C)CC5=O)CC4(C)C)c(-c4c(Cl)c(Cl)cc5[nH]ncc45)c3C)C2)C1` (single isomer, unassigned) [Example 240a, 1-((1-(1-(2-acryloyl-2-azaspiro[3.3]heptan-6-yl)-4-(5,6-dichloro-1H-indazol-4-yl)-5-methyl-1H-pyrazol-3-yl)-2,2-dimethylpiperidin-4-yl)methyl)-4-methylpiperazin-2-one]: 390 nM; for `C=CC(=O)N1CC2(CC(n3nc(N4CCN(C(=O)OC)CC4(C)C)c(-c4c(Cl)c(C)cc5[nH]ncc45)c3C)C2)C1` (single isomer, unassigned) [Example 125b, methyl 4-(1-(2-acryloyl-2-azaspiro[3.3]heptan-6-yl)-4-(5-chloro-6-methyl-1H-indazol-4-yl)-5-methyl-1H-pyrazol-3-yl)-3,3-dimethylpiperazine-1-carboxylate]: 35 nM.

For `C=CC(=O)N1CC2(CC(n3nc(N4CCC(N(C)C5COC5)CC4(C)C)c(-c4c(Cl)c(Cl)cc5[nH]ncc45)c3C)C2)C1` (single isomer, unassigned) [Example 50a, 1-(6-(4-(5,6-dichloro-1H-indazol-4-yl)-3-(2,2-dimethyl-4-(methyl(oxetan-3-yl)amino)piperidin-1-yl)-5-methyl-1H-pyrazol-1-yl)-2-azaspiro[3.3]heptan-2-yl)prop-2-en-1-one], the IC50 is 273 nM. With `C=CC(=O)N1CC2(CC(n3nc(N4CCN(CCOC)CC4(C)C)c(-c4c(Cl)c(C)cc5[nH]ncc45)c3C)C2)C1` (single isomer, unassigned) [Example 170a, 1-(6-(4-(5-chloro-6-methyl-1H-indazol-4-yl)-3-(4-(2-methoxyethyl)-2,2-dimethylpiperazin-1-yl)-5-methyl-1H-pyrazol-1-yl)-2-azaspiro[3.3]heptan-2-yl)prop-2-en-1-one], the IC50 was more than 50000 nM. For the compound `C=CC(=O)N1CC2(CC(n3nc(N4CCn5nccc5C4C)c(-c4c(Cl)c(C)cc5[nH]ncc45)c3C)C2)C1` (single isomer, unassigned) [Example 42a, 1-(6-(4-(5-chloro-6-methyl-1H-indazol-4-yl)-5-methyl-3-(4-methyl-6,7-dihydropyrazolo[1,5-a]pyrazin-5(4H)-yl)-1H-pyrazol-1-yl)-2-azaspiro[3.3]heptan-2-yl)prop-2-en-1-one], the IC50 is more than 50000 nM. For `C=CC(=O)N1CC2(CC(n3nc(N4CCOCC4(C)C)c(-c4c(Cl)c(C)cc5[nH]ncc45)c3C)C2)C1` (single isomer, unassigned) [Example 22a, 1-(6-(4-(5-chloro-6-methyl-1H-indazol-4-yl)-3-(3,3-dimethylmorpholino)-5-methyl-1H-pyrazol-1-yl)-2-azaspiro[3.3]heptan-2-yl)prop-2-en-1-one], the IC50 was more than 50000 nM. The same measure for `C=CC(=O)N1CC2(CC(n3nc(N4CCC(CN5CCOCC5)C4(C)C)c(-c4c(Cl)c(Cl)cc5[nH]ncc45)c3C)C2)C1` (single isomer, unassigned) [Example 219a, 1-(6-(4-(5,6-dichloro-1H-indazol-4-yl)-3-(2,2-dimethyl-3-(morpholinomethyl)pyrrolidin-1-yl)-5-methyl-1H-pyrazol-1-yl)-2-azaspiro[3.3]heptan-2-yl)prop-2-en-1-one]: 1600 nM; for `C=CC(=O)N1CC2(CC(n3nc(N4CC[C@@H](CN5CCOC[C@@H](O)C5)CC4(C)C)c(-c4c(Cl)c(Cl)cc5[nH]ncc45)c3C)C2)C1` (single isomer, unassigned) [Example 292a]: 1900 nM; for `C=CC(=O)N1CC2(CC(n3nc(N4CC[C@@H](CN5CCCC6CN(C)C(=O)C65)CC4(C)C)c(-c4c(Cl)c(Cl)cc5[nH]ncc45)c3C)C2)C1` (single isomer, unassigned) [Example 261a, (4aR*,7aR*)-1-(((R)-1-(1-(2-acryloyl-2-azaspiro[3.3]heptan-6-yl)-4-(5,6-dichloro-1H-indazol-4-yl)-5-methyl-1H-pyrazol-3-yl)-2,2-dimethylpiperidin-4-yl)methyl)-6-methyloctahydro-7H-pyrrolo[3,4-b]pyridin-7-one]: more than 5000 nM. For `C=CC(=O)N1CC2(CC(n3nc(N4CCN(C5CC6(COC6)C5)CC45CCC5)c(-c4c(Cl)c(C)cc5[nH]ncc45)c3C)C2)C1` (single isomer, unassigned) [Example 135a, 1-(6-(3-(8-(2-oxaspiro[3.3]heptan-6-yl)-5,8-diazaspiro[3.5]nonan-5-yl)-4-(5-chloro-6-methyl-1H-indazol-4-yl)-5-methyl-1H-pyrazol-1-yl)-2-azaspiro[3.3]heptan-2-yl)prop-2-en-1-one], the IC50 was more than 5000 nM. The same measure for `C=CC(=O)N1CC2(CC(n3nc(N4CC[C@@H](CN5CCOC6CS(=O)(=O)CC65)CC4(C)C)c(-c4c(Cl)c(Cl)cc5[nH]ncc45)c3C)C2)C1` (single isomer, unassigned) [Example 265b, 1-(6-(4-(5,6-dichloro-1H-indazol-4-yl)-3-((R)-4-(((4aR*,7aS*)-6,6-dioxidohexahydro-4H-thieno[3,4-b][1,4]oxazin-4-yl)methyl)-2,2-dimethylpiperidin-1-yl)-5-methyl-1H-pyrazol-1-yl)-2-azaspiro[3.3]heptan-2-yl)prop-2-en-1-one]: 9 nM; for `C=CC(=O)N1CC2(CC(n3nc(N4CCN(C[C@@H]5COCCO5)C[C@@]4(C)C(F)F)c(-c4c(Cl)c(Cl)cc5[nH]ncc45)c3C)C2)C1` (single isomer, unassigned) [Example 105a]: more than 5000 nM.
